{
  "source": "patent US5840917A",
  "about": "“Phosphorylamides, their preparation and use” (Takeda Chemical Industries, Ltd., priority 1995, dated 1998)",
  "key": {"[1]": {"system": "Helicobacter pylori (CPY-433 F4)", "assay": "Bacteria eradication effect of urease inhibitor (in vivo) in infected mice", "details": "male ICR mice, 10 mg/kg p.o. twice daily, lansoprazole 30 mg/kg s.c. once daily before first dose"}, "[2]": {"biological_target": "T1, Helicobacter pylori-derived urease (Helicobacter pylori, UniProt P69996)", "T1 construct": "an urease solution prepared from Helicobacter pylori; endogenous in cells", "T1 sequence (P69996 whole entry, looked up)": "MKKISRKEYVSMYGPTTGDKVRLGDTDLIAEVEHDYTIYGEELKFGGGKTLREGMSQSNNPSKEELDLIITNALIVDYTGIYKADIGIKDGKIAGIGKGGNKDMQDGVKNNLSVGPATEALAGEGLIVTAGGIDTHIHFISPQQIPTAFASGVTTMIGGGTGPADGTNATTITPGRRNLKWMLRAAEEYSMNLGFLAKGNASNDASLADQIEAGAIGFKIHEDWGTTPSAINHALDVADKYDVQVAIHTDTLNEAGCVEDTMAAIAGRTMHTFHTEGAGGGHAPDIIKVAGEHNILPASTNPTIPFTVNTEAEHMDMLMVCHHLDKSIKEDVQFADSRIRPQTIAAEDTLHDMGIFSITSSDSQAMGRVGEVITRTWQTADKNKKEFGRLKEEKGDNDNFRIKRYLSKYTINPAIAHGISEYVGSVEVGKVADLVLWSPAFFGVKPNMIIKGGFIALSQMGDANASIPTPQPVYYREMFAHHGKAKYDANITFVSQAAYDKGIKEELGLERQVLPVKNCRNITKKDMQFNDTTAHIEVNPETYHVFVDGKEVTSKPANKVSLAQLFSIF", "assay": "Screening of urease inhibitors (ammonia yield from urea)", "format": "biochemical", "experimental": "Screening of Urease Inhibitors\nOne hundred (100) μl of 100 mM Bis-Tris buffer (pH 6.5) and 60 μl of an urease solution prepared from Helicobacter pylori were added to 20 μl of a test drug dissolved in 0.1% dimethylformamide solution. The mixture was incubated at room temperature for 30 minutes, and then 20 μl of 100 mM urea was added. The mixture was kept at room temperature for 10 minutes, and then the yielded ammonia in the incubation mixture was measured using a commercial test kit (Ammonia Test Wako®; Wako Pure Chemical). The percent inhibition against the yield of ammonia in the solvent addition group was calculated to obtain the IC50 value."}, "[3]": {"system": "Helicobacter pylori CPY 433 F4", "assay": "Bacteria eradication effect of flurofamide in infected mice", "format": "in vivo", "details": "male Crj:ICR mice; 100 mg/kg p.o. twice daily, 7 days, in 0.5% methylcellulose containing 1% sodium bicarbonate; * p<0.05 (chi^2 test); control 0/4", "experimental": "Bacteria Eradication Effect of Flurofamide\nTo 5-week-aged male Crj:ICR mice previously fasted for 30 hours, Helicobacter pylori CPY 433 F4 was inoculated intragastrically at 10^7 CFU per mouse. One week after the infection, a test compound which was suspended in 0.5% methylcellulose containing 1% sodium bicarbonate was orally administered at 100 mg/kg twice daily for 7 days. On the next day after the final administration, the stomach of the infected mouse was excised and homogenated. A series of 10-fold dilutions were inoculated to modified Skirrow medium supplemented with activated charcoal and incubated at 37° C. for 4 days under slightly aerobic conditions. The bacteria eradication effect was determined by investigating whether bacterial growth was seen or not."}, "[4]": {"details": "4 days for therapy, control 0/5"}},
  "note": "Read-outs that look alike come from different tables or passages of the source.",
  "data": [
    {"compound": "NP(N)(=O)NC(=O)c1sccc1C(F)F", "note": "[Example 19, N-(Diaminophosphinyl)-3-difluoromethyl-2-thiophenecarboxamide]", "values": [
      {"measurement": "Eradication Rate", "setting": "[1]; 2 days for therapy", "result": "1/5"},
      {"measurement": "IC50", "setting": "[2]", "result": 4.6, "unit": "nM"}
    ]},
    {"compound": "NP(N)(=O)NC(=O)c1coc(Cl)c1", "note": "[Example 46, N-(Diaminophosphinyl)-5-chloro-3-furancarboxamide]", "values": [
      {"measurement": "Eradication Rate", "setting": "[1]; 2 days for therapy", "result": "1/5"},
      {"measurement": "IC50", "setting": "[2]", "result": 5.7, "unit": "nM"}
    ]},
    {"compound": "NP(N)(=O)NC(=O)c1ccoc1", "note": "[Reference Example 29, N-(Diaminophosphinyl)-3-furancarboxamide]", "values": [
      {"measurement": "Eradication Rate", "setting": "[1]; [4]", "result": "2/5"},
      {"measurement": "IC50", "setting": "[2]", "result": 5.9, "unit": "nM"}
    ]},
    {"compound": "NP(N)(=O)NC(=O)c1cc(Cl)sc1Cl", "note": "[Example 25, N-(Diaminophosphinyl)-2,5-dichloro-3-thiophenecarboxamide]", "values": [
      {"measurement": "Eradication Rate", "setting": "[1]; 2 days for therapy", "result": "1/5"},
      {"measurement": "IC50", "setting": "[2]", "result": 1.1, "unit": "nM"}
    ]},
    {"compound": "NP(N)(=O)NC(=O)c1coc(Br)c1", "note": "[Example 41, N-(Diaminophosphinyl)-5-bromo-3-furancarboxamide]", "values": [
      {"measurement": "Eradication Rate", "setting": "[1]; 2 days for therapy", "result": "1/5"},
      {"measurement": "IC50", "setting": "[2]", "result": 7.7, "unit": "nM"}
    ]},
    {"compound": "N#Cc1ccc(C(=O)NP(N)(N)=O)cc1", "note": "[Reference Example 17, N-(Diaminophosphinyl)-4-cyanobenzamide]", "values": [
      {"measurement": "Eradication Rate", "setting": "[1]; [4]", "result": "1/5"},
      {"measurement": "IC50", "setting": "[2]", "result": 5.4, "unit": "nM"}
    ]},
    {"compound": "CCc1ccc(C(=O)NP(N)(N)=O)s1", "note": "[Example 9, N-(Diaminophosphinyl)-5-ethyl-2-thiophenecarboxamide]", "values": [
      {"measurement": "Eradication Rate", "setting": "[1]; 2 days for therapy", "result": "1/5"},
      {"measurement": "IC50", "setting": "[2]", "result": 13, "unit": "nM"}
    ]},
    {"compound": "NP(N)(=O)NC(=O)c1csc(Br)c1", "note": "[Example 11, N-(Diaminophosphinyl)-5-bromo-3-thiophenecarboxamide]", "values": [
      {"measurement": "Eradication Rate", "setting": "[1]; 2 days for therapy", "result": "1/5"},
      {"measurement": "IC50", "setting": "[2]", "result": 4.2, "unit": "nM"}
    ]},
    {"compound": "Cc1cc(C(=O)NP(N)(N)=O)c(C)s1", "note": "[Example 32, N-(Diaminophosphinyl)-2,5-dimethyl-3-thiophenecarboxamide]", "values": [
      {"measurement": "Eradication Rate", "setting": "[1]; 2 days for therapy", "result": "2/5"},
      {"measurement": "IC50", "setting": "[2]", "result": 8.7, "unit": "nM"}
    ]},
    {"compound": "NP(N)(=O)NC(=O)c1csc(Cl)c1", "note": "[Example 30, N-(Diaminophosphinyl)-5-chloro-3-thiophenecarboxamide]", "values": [
      {"measurement": "Eradication Rate", "setting": "[1]; 2 days for therapy", "result": "1/5"},
      {"measurement": "IC50", "setting": "[2]", "result": 4.3, "unit": "nM"}
    ]},
    {"compound": "NP(N)(=O)NC(=O)c1cccc([N+](=O)[O-])c1", "note": "[Reference Example 23, N-(Diaminophosphinyl)-3-nitrobenzamide]", "values": [
      {"measurement": "Eradication Rate", "setting": "[1]; [4]", "result": "1/5"},
      {"measurement": "IC50", "setting": "[2]", "result": 5.7, "unit": "nM"}
    ]},
    {"compound": "NP(N)(=O)NC(=O)c1ccc(Cl)s1", "note": "[Example 5, N-(Diaminophosphinyl)-5-chloro-2-thiophenecarboxamide]", "values": [
      {"measurement": "Eradication Rate", "setting": "[1]; [4]", "result": "3/5"},
      {"measurement": "IC50", "setting": "[2]", "result": 3, "unit": "nM"}
    ]},
    {"compound": "NP(N)(=O)NC(=O)c1ccco1", "note": "[Reference Example 25, N-(Diaminophosphinyl)-2-furancarboxamide]", "values": [
      {"measurement": "Eradication Rate", "setting": "[1]; [4]", "result": "1/5"},
      {"measurement": "IC50", "setting": "[2]", "result": 1.9, "unit": "nM"}
    ]},
    {"compound": "NP(N)(=O)NC(=O)c1ccc([N+](=O)[O-])o1", "note": "[Reference Example 30, N-(Diaminophosphiny1)-5-nitro-2-furancarboxamide]", "values": [
      {"measurement": "Eradication Rate", "setting": "[1]; 3 days for therapy", "result": "2/5"},
      {"measurement": "IC50", "setting": "[2]", "result": 4.3, "unit": "nM"}
    ]},
    {"compound": "NP(N)(=O)NC(=O)COc1ccc(F)cc1", "note": "[Example 54, N-(Diaminophosphinyl)-4-fluorophenoxyacetamide]", "values": [
      {"measurement": "Eradication Rate", "setting": "[1]; 3 days for therapy", "result": "1/5"},
      {"measurement": "IC50", "setting": "[2]", "result": 3.3, "unit": "nM"}
    ]},
    {"compound": "CC(=O)c1ccc(C(=O)NP(N)(N)=O)s1", "note": "[Example 17, N-(Diaminophosphinyl)-5-acetyl-2-thiophenecarboxamide]", "values": [
      {"measurement": "Eradication Rate", "setting": "[1]; 2 days for therapy", "result": "1/5"},
      {"measurement": "IC50", "setting": "[2]", "result": 8.2, "unit": "nM"}
    ]},
    {"compound": "N#Cc1ccc(C(=O)NP(N)(N)=O)s1", "note": "[Example 12, N-(Diaminophosphinyl)-5-cyano-2-thiophenecarboxamide]", "values": [
      {"measurement": "Eradication Rate", "setting": "[1]; 2 days for therapy", "result": "1/5"},
      {"measurement": "IC50", "setting": "[2]", "result": 3.6, "unit": "nM"}
    ]},
    {"compound": "Cc1sccc1C(=O)NP(N)(N)=O", "note": "[Example 15, N-(Diaminophosphinyl)-2-methyl-3-thiophenecarboxamide]", "values": [
      {"measurement": "Eradication Rate", "setting": "[1]; 2 days for therapy", "result": "2/5"},
      {"measurement": "IC50", "setting": "[2]", "result": 1.7, "unit": "nM"}
    ]},
    {"compound": "Cc1csc(C(=O)NP(N)(N)=O)c1", "note": "[Example 28, N-(Diaminophosphinyl)-4-methyl-2-thiophenecarboxamide]", "values": [
      {"measurement": "Eradication Rate", "setting": "[1]; 2 days for therapy", "result": "1/5"},
      {"measurement": "IC50", "setting": "[2]", "result": 1.5, "unit": "nM"}
    ]},
    {"compound": "Cc1occc1C(=O)NP(N)(N)=O", "note": "[Example 40, N-(Diaminophosphinyl)-2-methyl-3-furancarboxamide]", "values": [
      {"measurement": "Eradication Rate", "setting": "[1]; 2 days for therapy", "result": "1/5"},
      {"measurement": "IC50", "setting": "[2]", "result": 7.9, "unit": "nM"}
    ]},
    {"compound": "N#Cc1ccsc1C(=O)NP(N)(N)=O", "note": "[Example 23, N-(Diaminophosphinyl)-3-cyano-2-thiophenecarboxamide]", "values": [
      {"measurement": "Eradication Rate", "setting": "[1]; 2 days for therapy", "result": "1/5"},
      {"measurement": "IC50", "setting": "[2]", "result": 2.2, "unit": "nM"}
    ]},
    {"compound": "CCc1ccc(C(=O)NP(N)(N)=O)o1", "note": "[Example 44, N-(Diaminophosphinyl)-5-ethyl-2-furancarboxamide]", "values": [
      {"measurement": "Eradication Rate", "setting": "[1]; 2 days for therapy", "result": "1/5"},
      {"measurement": "IC50", "setting": "[2]", "result": 14, "unit": "nM"}
    ]},
    {"compound": "NP(N)(=O)NC(=O)c1ccsc1", "note": "[Example 2, N-(Diaminophosphinyl)-3-thiophenecarboxamide]", "values": [
      {"measurement": "Eradication Rate", "setting": "[1]; [4]", "result": "2/5"},
      {"measurement": "IC50", "setting": "[2]", "result": 16, "unit": "nM"}
    ]},
    {"compound": "NP(N)(=O)NC(=O)c1ccsc1Br", "note": "[Example 26, N-(Diaminophosphinyl)-2-bromo-3-thiophenecarboxamide]", "values": [
      {"measurement": "Eradication Rate", "setting": "[1]; 2 days for therapy", "result": "2/5"},
      {"measurement": "IC50", "setting": "[2]", "result": 1.3, "unit": "nM"}
    ]},
    {"compound": "NP(N)(=O)NC(=O)c1ccoc1Cl", "note": "[Example 45, N-(Diaminophosphinyl)-2-chloro-3-furancarboxamide]", "values": [
      {"measurement": "Eradication Rate", "setting": "[1]; 2 days for therapy", "result": "1/5"},
      {"measurement": "IC50", "setting": "[2]", "result": 1.4, "unit": "nM"}
    ]},
    {"compound": "Cc1ccc(C(=O)NP(N)(N)=O)s1", "note": "[Example 3, N-(Diaminophosphinyl)-5-methyl-2-thiophenecarboxamide]", "values": [
      {"measurement": "Eradication Rate", "setting": "[1]; [4]", "result": "2/5"},
      {"measurement": "IC50", "setting": "[2]", "result": 5.5, "unit": "nM"}
    ]},
    {"compound": "NP(N)(=O)NC(=O)c1ccc(Br)cc1", "note": "[Reference Example 22, N-(Diaminophosphinyl)-4-bromobenzamide]", "values": [
      {"measurement": "Eradication Rate", "setting": "[1]; [4]", "result": "1/5"},
      {"measurement": "IC50", "setting": "[2]", "result": 9.3, "unit": "nM"}
    ]},
    {"compound": "NP(N)(=O)NC(=O)c1ccc(F)cc1", "note": "[Reference Example 1, N-(Diaminophosphinyl)-4-fluorobenzamide, reference compound]", "values": [
      {"measurement": "Eradication Rate", "setting": "[3]", "result": "4/5"},
      {"measurement": "IC50", "setting": "[2]; Bis-Tris pH 6.5, room temperature, 30 min preincubation, 10 min with urea, read-out: IC50, inhibitory effect against Helicobacter pylori-derived urease", "result": 5, "unit": "nM"}
    ]}
  ]
}
